Laboratory results published in patent US20200017495A1, “NOVEL HETEROCYCLIC COMPOUNDS AND THEIR USE IN PREVENTING OR TREATING BACTERIAL INFECTIONS” (priority 2017, published 2020).

Test system: Klebsiella pneumoniae (KPN) isolates
Assay: MIC of compounds alone and combined with antibacterials, broth microdilution (CLSI)
Format: cell-based
Method in brief: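 Broth microdilution in cation-adjusted Mueller-Hinton broth, inoculum 5.10^5 CFU/mL, 16-20 h at 35° C in ambient air, on genotyped isolates. Compound MIC, alone or with an antibacterial, taken visually as lowest concentration preventing growth; antibacterial MIC determined at each compound concentration.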

C=CC1=C(C(=O)O)N2C(=O)[C@@H](NC(=O)/C(=N\OCC(=O)O)c3csc(N)n3)[C@H]2SC1 [FIX, Cefixime]
MIC ATB in combination (KPN 6299, AF2 @ 8 μg/mL): <=0.25 μg/mL
MIC ATB in combination (KPN 6299, AF3 @ 8 μg/mL): <=0.25 μg/mL
MIC ATB in combination (KPN 6299, CLA @ 4 μg/mL): 8 µg/mL
MIC ATB in combination (KPN 110376, AF2 @ 8 μg/mL): <0.25 µg/mL
MIC ATB in combination (KPN 110376, AF3 @ 8 μg/mL): <=0.25 μg/mL
MIC ATB in combination (KPN 110376, CLA @ 4 μg/mL): 128 µg/mL
MIC ATB in combination (KPN 121206, AF2 @ 8 μg/mL): >128 µg/mL
MIC ATB in combination (KPN 121206, AF3 @ 8 μg/mL): >128 µg/mL
MIC ATB in combination (KPN 121206, CLA @ 4 μg/mL): >128 µg/mL
MIC ATB in combination (KPN 131119, AF2 @ 8 μg/mL): <=0.25 μg/mL
MIC ATB in combination (KPN 131119, AF3 @ 8 μg/mL): <=0.25 μg/mL
MIC ATB in combination (KPN 131119, CLA @ 4 μg/mL): >128 µg/mL
MIC ATB in combination (KPN 140513, AF2 @ 8 μg/mL): 8 µg/mL
MIC ATB in combination (KPN 140513, AF3 @ 8 μg/mL): 32 µg/mL
MIC ATB in combination (KPN 140513, CLA @ 4 μg/mL): >128 µg/mL
MIC ATB in combination (KPN 160143, AF2 @ 8 μg/mL): <0.25 µg/mL
MIC ATB in combination (KPN 160143, AF3 @ 8 μg/mL): <0.25 µg/mL
MIC ATB in combination (KPN 160143, CLA @ 4 μg/mL): 2 µg/mL
MIC ATB in combination (KPN 190128, AF2 @ 8 μg/mL): 1 µg/mL
MIC ATB in combination (KPN 190128, AF3 @ 8 μg/mL): 1 µg/mL
MIC ATB in combination (KPN 190128, CLA @ 4 μg/mL): 0.5 µg/mL
MIC ATB in combination (KPN 190270, AF2 @ 8 μg/mL): 0.5 µg/mL
MIC ATB in combination (KPN 190270, AF3 @ 8 μg/mL): 0.5 µg/mL
MIC ATB in combination (KPN 190270, CLA @ 4 μg/mL): 1 µg/mL
MIC ATB in combination (KPN 190425, AF2 @ 8 μg/mL): 0.5 µg/mL
MIC ATB in combination (KPN 190425, AF3 @ 8 μg/mL): <=0.25 μg/mL
MIC ATB in combination (KPN 190425, CLA @ 4 μg/mL): <=0.25 μg/mL
MIC ATB in combination (KPN 190551, AF2 @ 8 μg/mL): <0.25 µg/mL
MIC ATB in combination (KPN 190551, AF3 @ 8 μg/mL): <0.25 µg/mL
MIC ATB in combination (KPN 190551, CLA @ 4 μg/mL): <=0.25 μg/mL
MIC ATB in combination (KPN 200047, AF2 @ 8 μg/mL): <0.25 µg/mL
MIC ATB in combination (KPN 200047, AF3 @ 8 μg/mL): <0.25 µg/mL
MIC ATB in combination (KPN 200047, CLA @ 4 μg/mL): <=0.25 μg/mL
MIC ATB in combination (KPN 200327, AF2 @ 8 μg/mL): <0.25 µg/mL
MIC ATB in combination (KPN 200327, AF3 @ 8 μg/mL): <0.25 µg/mL
MIC ATB in combination (KPN 200327, CLA @ 4 μg/mL): <=0.25 μg/mL
MIC ATB in combination (KPN 260251, AF2 @ 8 μg/mL): <=0.25 μg/mL
MIC ATB in combination (KPN 260251, AF3 @ 8 μg/mL): <=0.25 μg/mL
MIC ATB in combination (KPN 260251, CLA @ 4 μg/mL): 32 µg/mL
MIC ATB in combination (KPN 260252, AF2 @ 8 μg/mL): 16 µg/mL
MIC ATB in combination (KPN 260252, AF3 @ 8 μg/mL): 16 µg/mL
MIC ATB in combination (KPN 260252, CLA @ 4 μg/mL): 128 µg/mL
MIC ATB in combination (KPN 260376, AF2 @ 8 μg/mL): <0.25 µg/mL
MIC ATB in combination (KPN 260376, AF3 @ 8 μg/mL): <0.25 µg/mL
MIC ATB in combination (KPN 260376, CLA @ 4 μg/mL): <=0.25 μg/mL
MIC ATB in combination (KPN 270077, AF2 @ 8 μg/mL): 0.5 µg/mL
MIC ATB in combination (KPN 270077, AF3 @ 8 μg/mL): <=0.25 μg/mL
MIC ATB in combination (KPN 270077, CLA @ 4 μg/mL): 0.5 µg/mL
MIC ATB in combination (KPN 700603, AF2 @ 8 μg/mL): <=0.25 μg/mL
MIC ATB in combination (KPN 700603, AF3 @ 8 μg/mL): 0.5 µg/mL
MIC ATB in combination (KPN 700603, CLA @ 4 μg/mL): 0.5 µg/mL
MIC ATB in combination (KPN ARA, AF2 @ 8 μg/mL): <=0.25 μg/mL
MIC ATB in combination (KPN ARA, AF3 @ 8 μg/mL): <0.25 µg/mL
MIC ATB in combination (KPN ARA, CLA @ 4 μg/mL): 128 µg/mL
MIC ATB in combination (KPN BAA-1898, AF2 @ 8 μg/mL): <=0.25 μg/mL
MIC ATB in combination (KPN BAA-1898, AF3 @ 8 μg/mL): <=0.25 μg/mL
MIC ATB in combination (KPN BAA-1898, CLA @ 4 μg/mL): 64 µg/mL
MIC ATB in combination (KPN LIB, AF2 @ 8 μg/mL): <0.25 µg/mL
MIC ATB in combination (KPN LIB, AF3 @ 8 μg/mL): <0.25 µg/mL
MIC ATB in combination (KPN LIB, CLA @ 4 μg/mL): <=0.25 μg/mL
MIC ATB in combination (KPN UFR22_O, AF2 @ 8 μg/mL): <=0.25 μg/mL
MIC ATB in combination (KPN UFR22_O, AF3 @ 8 μg/mL): <=0.25 μg/mL
MIC ATB in combination (KPN UFR22_O, CLA @ 4 μg/mL): <=0.25 μg/mL
MIC ATB in combination (KPN UFR23, AF2 @ 8 μg/mL): <=0.25 μg/mL
MIC ATB in combination (KPN UFR23, AF3 @ 8 μg/mL): <0.25 µg/mL
MIC ATB in combination (KPN UFR23, CLA @ 4 μg/mL): <=0.25 μg/mL
MIC ATB in combination (KPN UFR24, AF2 @ 8 μg/mL): 0.5 µg/mL
MIC ATB in combination (KPN UFR24, AF3 @ 8 μg/mL): 0.5 µg/mL
MIC ATB in combination (KPN UFR24, CLA @ 4 μg/mL): 64 µg/mL
MIC ATB in combination (KPN UFR25, AF2 @ 8 μg/mL): <0.25 µg/mL
MIC ATB in combination (KPN UFR25, AF3 @ 8 μg/mL): <0.25 µg/mL
MIC ATB in combination (KPN UFR25, CLA @ 4 μg/mL): 64 µg/mL
MIC ATB in combination (KPN UFR27, AF2 @ 8 μg/mL): 8 µg/mL
MIC ATB in combination (KPN UFR27, AF3 @ 8 μg/mL): 8 µg/mL
MIC ATB in combination (KPN UFR27, CLA @ 4 μg/mL): >128 µg/mL
MIC ATB in combination (KPN UFR28, AF2 @ 8 μg/mL): <0.25 µg/mL
MIC ATB in combination (KPN UFR28, AF3 @ 8 μg/mL): 2 µg/mL
MIC ATB in combination (KPN UFR28, CLA @ 4 μg/mL): 64 µg/mL
MIC ATB in combination (KPN UFR33, AF2 @ 8 μg/mL): <=0.25 μg/mL
MIC ATB in combination (KPN UFR33, AF3 @ 8 μg/mL): >128 µg/mL
MIC ATB in combination (KPN UFR33, CLA @ 4 μg/mL): >128 µg/mL
MIC ATB in combination (KPN UFR42, AF2 @ 8 μg/mL): 128 µg/mL
MIC ATB in combination (KPN UFR42, AF3 @ 8 μg/mL): >128 µg/mL
MIC ATB in combination (KPN UFR42, CLA @ 4 μg/mL): >128 µg/mL
MIC ATB in combination (KPN UFR43, AF2 @ 8 μg/mL): <0.25 µg/mL
MIC ATB in combination (KPN UFR43, AF3 @ 8 μg/mL): <0.25 µg/mL
MIC ATB in combination (KPN UFR43, CLA @ 4 μg/mL): >128 µg/mL
MIC ATB in combination (KPN UFR46, AF2 @ 8 μg/mL): >128 µg/mL
MIC ATB in combination (KPN UFR46, AF3 @ 8 μg/mL): >128 µg/mL
MIC ATB in combination (KPN UFR46, CLA @ 4 μg/mL): >128 µg/mL
MIC ATB in combination (KPN UFR53, AF2 @ 8 μg/mL): <0.25 µg/mL
MIC ATB in combination (KPN UFR53, AF3 @ 8 μg/mL): <=0.25 μg/mL
MIC ATB in combination (KPN UFR53, CLA @ 4 μg/mL): 128 µg/mL
MIC ATB in combination (KPN UFR65, AF2 @ 8 μg/mL): 0.5 µg/mL
MIC ATB in combination (KPN UFR65, AF3 @ 8 μg/mL): <=0.25 μg/mL
MIC ATB in combination (KPN UFR65, CLA @ 4 μg/mL): 128 µg/mL
MIC ATB in combination (KPN UFR66, AF2 @ 8 μg/mL): 4 µg/mL
MIC ATB in combination (KPN UFR66, AF3 @ 8 μg/mL): 4 µg/mL
MIC ATB in combination (KPN UFR66, CLA @ 4 μg/mL): 64 µg/mL
MIC ATB in combination (KPN UFR67, AF2 @ 8 μg/mL): 4 µg/mL
MIC ATB in combination (KPN UFR67, AF3 @ 8 μg/mL): 4 µg/mL
MIC ATB in combination (KPN UFR67, CLA @ 4 μg/mL): 128 µg/mL
MIC ATB in combination (KPN UFR68, AF2 @ 8 μg/mL): 0.5 µg/mL
MIC ATB in combination (KPN UFR68, AF3 @ 8 μg/mL): 0.5 µg/mL
MIC ATB in combination (KPN UFR68, CLA @ 4 μg/mL): 64 µg/mL
MIC ATB in combination (KPN UFR76, AF2 @ 8 μg/mL): >128 µg/mL
MIC ATB in combination (KPN UFR76, AF3 @ 8 μg/mL): >128 µg/mL
MIC ATB in combination (KPN UFR76, CLA @ 4 μg/mL): >128 µg/mL
MIC ATB in combination (KPN UFR77, AF2 @ 8 μg/mL): 0.5 µg/mL
MIC ATB in combination (KPN UFR77, AF3 @ 8 μg/mL): <=0.25 μg/mL
MIC ATB in combination (KPN UFR77, CLA @ 4 μg/mL): 128 µg/mL
MIC ATB in combination (KPN UFR78, AF2 @ 8 μg/mL): >128 µg/mL
MIC ATB in combination (KPN UFR78, AF3 @ 8 μg/mL): >128 µg/mL
MIC ATB in combination (KPN UFR78, CLA @ 4 μg/mL): >128 µg/mL
MIC ATB in combination (KPN UFR79, AF2 @ 8 μg/mL): 2 µg/mL
MIC ATB in combination (KPN UFR79, AF3 @ 8 μg/mL): 2 µg/mL
MIC ATB in combination (KPN UFR79, CLA @ 4 μg/mL): >128 µg/mL
MIC ATB in combination (KPN UFR80, AF2 @ 8 μg/mL): <=0.25 μg/mL
MIC ATB in combination (KPN UFR80, AF3 @ 8 μg/mL): <=0.25 μg/mL
MIC ATB in combination (KPN UFR80, CLA @ 4 μg/mL): 0.5 µg/mL
MIC ATB in combination (KPN UFR81, AF2 @ 8 μg/mL): 64 µg/mL
MIC ATB in combination (KPN UFR81, AF3 @ 8 μg/mL): 32 µg/mL
